The target of one experiment is human CYP11B1 (Homo sapiens (Human), UniProt P15538). Put plainly: G-402 cellular enzyme assay, human CYP11B1 (cortisol release, HTRF). In kind it is cell-based. As to conditions: G-402 cells expressing human CYP11B1; 1 μM Deoxycortisol. An excerpt: (§1) Specifically we developed stable G-402 cells expressing ectopically human CYP11B1, human CYP11B2, human CYP11A1, cynomolgus CYP11B1 or cynomolgus CYP11B2 enzyme activity.
(§2) The expression plasmids contains the ORF for either human/cyno CYP11B1 or CYP11B2 under the control of a suitable promoter (CMV-promoter) and a suitable resistance marker (neomycin). Using standard techniques the expression plasmid is transfected into G-402 cells and these cells are then selected for expressing the given resistance markers. Individual cell-clones are then selected and assessed for displaying the desired enzymatic activity using 11-Deoxycorticosterone (Cyp11B2) or 11-Deoxycortisol (Cyp11B1) as a substrate.
(§3) For assaying enzymatic activity, cells were plated onto 96 well plates and incubated for 16 h. An aliquot of the supernatant is then transferred and analyzed for the concentration of the expected product (Aldosterone for CYP11B2; Cortisol for CYP11B1). The concentrations of these steroids can be determined using HTRF assays from CisBio analyzing either Aldosterone or Cortisol.
(§4) Inhibition of the release of produced steroids can be used as a measure of the respective enzyme inhibition by test compounds added during the cellular enzyme assay. The dose dependent inhibition of enzymatic activity by a compound is calculated by means of plotting added inhibitor concentrations x-axes) vs. measured steroid/product level (y-axes). The inhibition is then calculated by fitting the following 4-parameter sigmoidal function (Morgan-Mercer-Flodin (MMF) model) to the raw data points using the least squares method:
(§5) [formula] wherein, A is the maximum y value, B is the EC50 factor determined using XLFit, C is the minimum y value and D is the slope value.
(§6) EC50 values for compounds claimed herein were tested with the G402-based assay system described. Cyp11B2 enzyme activity was tested in presence of 1 μM Deoxycorticosterone and variable amounts of inhibitors; Cyp11B1 enzyme activity was tested in presence of 1 μM Deoxycortisol and variable amounts of inhibitors.
Background: Time-resolved FRET reads energy transfer from a long-lived donor to a nearby acceptor.

For the next experiment, the target named is human CYP11B2 (Homo sapiens (Human), UniProt P19099). The experiment is described as follows: G-402 cellular enzyme assay, human CYP11B2 (aldosterone release, HTRF). In kind it is cell-based. As to conditions: G-402 cells expressing human CYP11B2; 1 μM Deoxycorticosterone.
Description: as §1, §2, §3, §4, §5, §6

human CYP11B2, sequence (P19099 25-503): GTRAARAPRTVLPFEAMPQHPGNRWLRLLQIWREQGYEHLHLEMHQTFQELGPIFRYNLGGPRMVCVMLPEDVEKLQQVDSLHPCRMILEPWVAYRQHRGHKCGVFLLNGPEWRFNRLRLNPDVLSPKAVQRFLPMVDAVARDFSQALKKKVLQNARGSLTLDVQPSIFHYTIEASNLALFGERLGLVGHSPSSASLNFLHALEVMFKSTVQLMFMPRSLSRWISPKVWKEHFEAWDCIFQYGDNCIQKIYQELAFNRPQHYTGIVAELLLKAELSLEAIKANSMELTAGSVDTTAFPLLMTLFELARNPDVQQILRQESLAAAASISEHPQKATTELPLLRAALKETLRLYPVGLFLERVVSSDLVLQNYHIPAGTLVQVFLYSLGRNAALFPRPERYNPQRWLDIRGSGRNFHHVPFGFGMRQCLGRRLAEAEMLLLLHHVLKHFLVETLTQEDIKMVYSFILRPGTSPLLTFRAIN
human CYP11B1, sequence (P15538 25-503): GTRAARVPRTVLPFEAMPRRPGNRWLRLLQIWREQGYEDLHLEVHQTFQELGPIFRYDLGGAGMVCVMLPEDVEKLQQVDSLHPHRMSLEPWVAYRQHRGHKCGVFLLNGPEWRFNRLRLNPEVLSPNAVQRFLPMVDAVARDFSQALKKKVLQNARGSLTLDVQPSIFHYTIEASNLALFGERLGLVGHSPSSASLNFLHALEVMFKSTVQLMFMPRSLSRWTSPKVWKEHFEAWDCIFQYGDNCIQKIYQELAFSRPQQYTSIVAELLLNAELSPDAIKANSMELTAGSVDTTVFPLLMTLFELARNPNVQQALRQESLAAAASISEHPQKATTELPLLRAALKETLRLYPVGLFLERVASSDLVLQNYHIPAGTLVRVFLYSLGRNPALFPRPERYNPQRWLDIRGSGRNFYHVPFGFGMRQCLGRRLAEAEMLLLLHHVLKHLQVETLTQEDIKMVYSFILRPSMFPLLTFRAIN

The EC50 is the concentration that produces a half-maximal response. A low value points to higher potency in that assay. For the compound `CCC(=O)NC1CCCc2c(-c3ccc4c(c3)CCC(=O)N4C)cncc21` (racemic) [Example 1, (rac)-N-(4-(1-Methyl-2-oxo-1,2,3,4-tetrahydroquinolin-6-yl)-5,6,7,8-tetrahydroisoquinolin-8-yl)propionamide], the values for the EC50 at human CYP11B1 and at human CYP11B2 were 2370 nM and 30 nM, respectively. As to `CCS(=O)(=O)NC1CCCc2c(-c3ccc4c(c3)CCC(=O)N4C)cncc21` (racemic) [Example 4, (rac)-N-(4-(1-Methyl-2-oxo-1,2,3,4-tetrahydroquinolin-6-yl)-5,6,7,8-tetrahydroisoquinolin-8-yl)ethanesulfonamide], the EC50 at human CYP11B1 amounted to 4920 nM; on human CYP11B2, 97 nM. The corresponding values for `CCC(=O)NC1CCc2c(-c3ccc4c(c3)CCC(=O)N4C)cncc21` (racemic) [Example 7, (rac)-N-(4-(1-Methyl-2-oxo-1,2,3,4-tetrahydroquinolin-6-yl)-6,7-dihydro-5H-cyclopenta[c]pyridin-7-yl)propionamide] are 1110 nM and 12 nM. For `CCS(=O)(=O)NC1CCc2c(-c3ccc4c(c3)CCC(=O)N4C)cncc21` (racemic) [Example 10, (rac)-N-(4-(1-Methyl-2-oxo-1,2,3,4-tetrahydroquinolin-6-yl)-6,7-dihydro-5H-cyclopenta[c]pyridin-7-yl)ethanesulfonamide] the same measures were 4170 nM and 59 nM. The corresponding values for `CCC(=O)NC1CCc2c(-c3cc4c(cc3F)N(C)C(=O)CC4)cncc21` (racemic) [Example 22, (rac)-N-(4-(7-Fluoro-1-methyl-2-oxo-1,2,3,4-tetrahydroquinolin-6-yl)-6,7-dihydro-5H-cyclopenta[c]pyridin-7-yl)propionamide] are 1200 nM and 10.2 nM.

In the case of `CCS(=O)(=O)NC1CCc2c(-c3cc4c(cc3F)N(C)C(=O)CC4)cncc21` (racemic) [Example 25, (rac)-N-(4-(7-Fluoro-1-methyl-2-oxo-1,2,3,4-tetrahydroquinolin-6-yl)-6,7-dihydro-5H-cyclopenta[c]pyridin-7-yl)ethanesulfonamide], the EC50 on human CYP11B1 was 2980 nM; at human CYP11B2 it was 33.4 nM. The corresponding values for `CCC(=O)NC1CCCc2c(-c3cc4c(cc3F)N(C)C(=O)CC4)cncc21` (racemic) [Example 28, (rac)-N-[4-(7-Fluoro-1-methyl-2-oxo-1,2,3,4-tetrahydro-quinolin-6-yl)-5,6,7,8-tetrahydroisoquinolin-8-yl]-propionamide] are 6820 nM and 74.9 nM.

For `CCC(=O)NC1CCCc2c(-c3cc(Cl)c4c(c3)CCC(=O)N4C)cncc21` (racemic) [Example 33, (rac)-N-[4-(8-Chloro-1-methyl-2-oxo-1,2,3,4-tetrahydro-quinolin-6-yl)-5,6,7,8-tetrahydro-isoquinolin-8-yl]-propionamide], the EC50 at human CYP11B1 was 11600 nM; at human CYP11B2, 79.8 nM.

As for `CCS(=O)(=O)NC1CCCc2c(-c3cc4c(cc3Cl)N(C)C(=O)CC4)cncc21` (racemic) [Example 34, (rac)-Ethanesulfonic acid [4-(7-chloro-1-methyl-2-oxo-1,2,3,4-tetrahydro-quinolin-6-yl)-5,6,7,8-tetrahydro-isoquinolin-8-yl]-amide], the figures for the EC50 on human CYP11B1 and at human CYP11B2 were 34700 nM and 386 nM, respectively. Regarding `CCS(=O)(=O)NC1CCCc2c(-c3cc(F)c4c(c3)CCC(=O)N4C)cncc21` (racemic) [Example 36, (rac)-Ethanesulfonic acid [4-(8-fluoro-1-methyl-2-oxo-1,2,3,4-tetrahydro-quinolin-6-yl)-5,6,7,8-tetrahydro-isoquinolin-8-yl]-amide], the figures for the EC50 on human CYP11B1 and on human CYP11B2 were 20700 nM and 239 nM, respectively. For `CCS(=O)(=O)NC1CCCc2c(-c3cc(Cl)c4c(c3)CCC(=O)N4C)cncc21` (racemic) [Example 37, (rac)-Ethanesulfonic acid [4-(8-chloro-1-methyl-2-oxo-1,2,3,4-tetrahydro-quinolin-6-yl)-5,6,7,8-tetrahydro-isoquinolin-8-yl]-amide] the same measures were 13500 nM and 199 nM. The corresponding values for `CCC(=O)NC1CCc2c(-c3cc(Cl)c4c(c3)CCC(=O)N4C)cncc21` (racemic) [Example 58, (rac)-N-(4-(8-Chloro-1-methyl-2-oxo-1,2,3,4-tetrahydroquinolin-6-yl)-6,7-dihydro-5H-cyclopenta[c]pyridin-7-yl)propionamide] are 7600 nM and 44.6 nM. The corresponding values for `CN1C(=O)CCc2cc(-c3cncc4c3CCCC4O)ccc21` (racemic) [Example 67, (rac)-6-(8-Hydroxy-5,6,7,8-tetrahydro-isoquinolin-4-yl)-1-methyl-3,4-dihydroquinolin-2(1H)-one] are 206 nM and 4.7 nM. In the case of `CCC(=O)NC1CCCc2c(-c3cc4c(cc3Cl)N(C)C(=O)CC4)cncc21` (single isomer, unassigned) [Example 35, N—[(R or S)-4-(7-Chloro-1-methyl-2-oxo-1,2,3,4-tetrahydro-quinolin-6-yl)-5,6,7,8-tetrahydro-isoquinolin-8-yl]-propionamide], on human CYP11B2, the EC50 was found to be 1770 nM. With `CCC(=O)N[C@H]1c2cncc(-c3ccc4c(c3)CCC(=O)N4C)c2CC[C@@H]1C` (single isomer, unassigned) [Example 42, (+)-N-[(7S,8R or 7R,8S)-7-Methyl-4-(1-methyl-2-oxo-1,2,3,4-tetrahydro-quinolin-6-yl)-5,6,7,8-tetrahydro-isoquinolin-8-yl]-propionamide], the EC50 stood at 524 nM on human CYP11B1 and 14.5 nM on human CYP11B2.

`CCC(=O)N[C@@H]1c2cncc(-c3cc4c(cc3F)N(C)C(=O)CC4)c2CC[C@@H]1C` (single isomer, unassigned) [Example 43, (−)-N-[(7S,8S or 7R,8R)-4-(7-Fluoro-1-methyl-2-oxo-1,2,3,4-tetrahydro-quinolin-6-yl)-7-methyl-5,6,7,8-tetrahydro-isoquinolin-8-yl]-propionamide]: the EC50 was 32000 nM at human CYP11B1 and 452 nM at human CYP11B2. On human CYP11B2, `CCC(=O)N[C@@H]1c2cncc(-c3ccc4c(c3)CCC(=O)N4C)c2CC[C@H]1C` (single isomer, unassigned) [Example 47, (−)-N-[(7R,8S or 7S,8R)-7-Methyl-4-(1-methyl-2-oxo-1,2,3,4-tetrahydro-quinolin-6-yl)-5,6,7,8-tetrahydro-isoquinolin-8-yl]-propionamide] registered an EC50 of 1820 nM. Take `CCC(=O)N[C@@H]1c2cncc(-c3ccc4c(c3)CCC(=O)N4C)c2CC[C@H]1F` (single isomer, unassigned) [Example 50, (−)-N-[(7R,8R or 7S,8S)-7-Fluoro-4-(1-methyl-2-oxo-1,2,3,4-tetrahydro-quinolin-6-yl)-5,6,7,8-tetrahydro-isoquinolin-8-yl]-propionamide]: the EC50 on human CYP11B2 is 4320 nM. The same measure, in the same setting: the result for `CCC(=O)NC1CCc2c(-c3cc4c(cc3F)N(C)C(=O)CC4)cncc21` (single isomer, unassigned; (-)) [Example 23, (−)-(S or R)—N-(4-(7-Fluoro-1-methyl-2-oxo-1,2,3,4-tetrahydroquinolin-6-yl)-6,7-dihydro-5H-cyclopenta[c]pyridin-7-yl)propionamide] reads 1380 nM; that for `CCS(=O)(=O)NC1CCc2c(-c3cc4c(cc3F)N(C)C(=O)CC4)cncc21` (single isomer, unassigned; (-)) [Example 26, (−)-(S or R)—N-(4-(7-Fluoro-1-methyl-2-oxo-1,2,3,4-tetrahydroquinolin-6-yl)-6,7-dihydro-5H-cyclopenta[c]pyridin-7-yl)ethanesulfonamide], 4550 nM; that for `CCS(=O)(=O)NC1CCCc2c(-c3cc(Cl)c4c(c3)CCC(=O)N4C)cncc21` (single isomer, unassigned; (-)) [Example 39, (−)-Ethanesulfonic acid [(S or R)-4-(8-chloro-1-methyl-2-oxo-1,2,3,4-tetrahydro-quinolin-6-yl)-5,6,7,8-tetrahydro-isoquinolin-8-yl]-amide], 130 nM. On the same count and under the same terms, the result for `CCC(=O)NC1CCCc2c(-c3cc(Cl)c4c(c3)CCC(=O)N4C)cncc21` (single isomer, unassigned; (-)) [Example 40, (−)-N—[(S or R)-4-(8-Chloro-1-methyl-2-oxo-1,2,3,4-tetrahydro-quinolin-6-yl)-5,6,7,8-tetrahydro-isoquinolin-8-yl]-propionamide] reads 126 nM; that for `CCC(=O)NC1CCc2c(-c3cc(Cl)c4c(c3)CCC(=O)N4C)cncc21` (single isomer, unassigned; (-)) [Example 59, (−)-(S or R)—N-(4-(8-Chloro-1-methyl-2-oxo-1,2,3,4-tetrahydroquinolin-6-yl)-6,7-dihydro-5H-cyclopenta[c]pyridin-7-yl)propionamide], 3290 nM.
